The target in this assay is T1, α9*nAChR (alpha9-containing nicotinic ACh receptor) (Trachemys scripta, UniProt Q3L0X1).
T1 construct: gene CHRNA9; native receptor in type II hair cells, intact split-epithelial posterior crista; read-out through coupled SK potassium current
The experiment in a line: whole-cell patch clamp of type II hair cells, peak ACh-sensitive outward current, Hill fit. It counts as cell-based. Particulars: agonist; coupled SK current read-out at −17 mV; intact epithelium with acetylcholinesterase and diffusion barriers; pH 7.6; 21–25°C.

Structures are written as SMILES.

T1 sequence (Q3L0X1 28-490): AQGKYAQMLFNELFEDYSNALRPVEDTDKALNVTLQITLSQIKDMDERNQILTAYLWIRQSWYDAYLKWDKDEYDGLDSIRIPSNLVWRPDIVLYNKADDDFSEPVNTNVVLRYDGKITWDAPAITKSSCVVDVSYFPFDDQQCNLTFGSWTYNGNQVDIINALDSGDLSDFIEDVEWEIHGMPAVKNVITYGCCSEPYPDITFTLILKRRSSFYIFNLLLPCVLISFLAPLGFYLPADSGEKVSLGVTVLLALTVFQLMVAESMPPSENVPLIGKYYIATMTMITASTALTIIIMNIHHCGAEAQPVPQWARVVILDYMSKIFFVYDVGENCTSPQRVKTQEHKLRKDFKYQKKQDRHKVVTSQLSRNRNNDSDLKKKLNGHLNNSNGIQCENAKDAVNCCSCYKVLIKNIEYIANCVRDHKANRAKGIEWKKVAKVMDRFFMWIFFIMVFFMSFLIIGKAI
T1 sequence (UPI001552A461 25-505 partner): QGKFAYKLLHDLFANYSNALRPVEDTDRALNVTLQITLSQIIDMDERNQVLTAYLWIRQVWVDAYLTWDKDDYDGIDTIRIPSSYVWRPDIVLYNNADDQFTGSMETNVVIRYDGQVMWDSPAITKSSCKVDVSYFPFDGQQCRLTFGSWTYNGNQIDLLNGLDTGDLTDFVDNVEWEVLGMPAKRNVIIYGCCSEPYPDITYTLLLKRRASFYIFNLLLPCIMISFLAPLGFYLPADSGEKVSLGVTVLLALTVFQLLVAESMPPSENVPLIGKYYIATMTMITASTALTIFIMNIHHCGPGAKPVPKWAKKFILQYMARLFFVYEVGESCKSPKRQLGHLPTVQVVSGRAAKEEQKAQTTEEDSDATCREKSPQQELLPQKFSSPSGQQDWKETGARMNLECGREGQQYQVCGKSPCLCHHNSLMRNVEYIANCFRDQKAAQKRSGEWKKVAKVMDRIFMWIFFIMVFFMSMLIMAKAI

As to `CC(=O)OCC[N+](C)(C)C` [acetylcholine], the EC50 amounted to 76 µM.

By EC50 is commonly meant the concentration needed to bring the measured effect to its halfway point.
